Data published in US5753695A, “Flavilium compounds and method of using” (Biogal Gyogyszergyar RT, priority 1992, dated 1998).

Legend:
[1] = tested on: HIV-1 IIIB; assay: HIV reverse transcriptase activity / HIV replication in infected MT-4 and H9 human lymphocyte cell-lines; type: cell-based, HIV-1 strain IIIB
Description: The HIV reverse transcriptase inhibiting activity of compounds of formula (I) of the invention was measured by the method of Hoffman, A. D. et al. described in Virology, Vol. 147, pp. 326-335, 1985.
The measurement results are shown for the model compound 5,7,4'-trihydroxy-4,3',5'-trimethyl-flavilium chloride (hereinafter referred to as "BIOGAL 6") and prepared as described in Example 1 below.
The active agents were tested on MT-4 and H9 human lymphocyte cell-lines infected with the strain HIV-1 IIIB. The cells were infected with 20 TCID50 of the HIV-1 virus.
[…] The active agent was first added to the culture 4 hours before the infection, and then 24, and 48 hours after infection. HIV infected, untreated MT-4 and H9 cells were used, as well as uninfected, untreated cells as a control. The AZT-control was zidovudine (ZDU) sold by Burroughs Wellcome Company under the name Retrovir.
Reverse transcriptase inhibiting activity was determined on 500 μl aliquots from supernatant of the culture and their virus concentration was measured. The results are given in cpm/cm^3 indicating ^3 H-TTP.

[2] = tested on: WISTAR Charles River/SPF laboratory rat strains; assay: Acute toxicity, WISTAR Charles River/SPF laboratory rats; type: in vivo; conditions: oral doses even as high as 2,000 μg/kg
Description: (§1) Acute toxicity examinations on CFP/SPF laboratory mice strains and WISTAR Charles River/SPF laboratory rat strains, orally and intravenously have shown that BIOGAL-6 is nontoxic at oral doses even as high as […].

[3] = tested on: CFP/SPF laboratory mice; assay: Acute toxicity, CFP/SPF laboratory mice; type: in vivo; conditions: oral doses even as high as 2,000 μg/kg
Description: as §1

| Compound | RT activity ([1]; Table 1, 5 μg/cm^3, 7 day) | RT activity ([1]; Table 1, 5 μg/cm^3, 10 day) | RT activity ([1]; Table 1, 5 μg/cm^3, 18 day) | RT activity ([1]; Table 1, 20 μg/cm^3, 7 day) | RT activity ([1]; Table 1, 20 μg/cm^3, 10 day) | RT activity ([1]; Table 1, 20 μg/cm^3, 18 day) | RT activity ([1]; Table 1, 100 μg/cm^3, 7 day) | RT activity ([1]; Table 1, 100 μg/cm^3, 10 day) | RT activity ([1]; Table 1, 100 μg/cm^3, 18 day) | RT activity ([1]; Table 2, 0.1 μg/cm^3, 7 day) | RT activity ([1]; Table 2, 0.1 μg/cm^3, 10 day) | RT activity ([1]; Table 2, 0.1 μg/cm^3, 18 day) | RT activity ([1]; Table 2, 0.5 μg/cm^3, 7 day) | RT activity ([1]; Table 2, 0.5 μg/cm^3, 10 day) | RT activity ([1]; Table 2, 0.5 μg/cm^3, 18 day) | RT activity ([1]; Table 2, 1.0 μg/cm^3, 7 day) | RT activity ([1]; Table 2, 1.0 μg/cm^3, 10 day) | RT activity ([1]; Table 2, 1.0 μg/cm^3, 18 day) | RT activity ([1]; Table 2, 2.5 μg/cm^3, 7 day) | RT activity ([1]; Table 2, 2.5 μg/cm^3, 10 day) | also measured |
| --- | --- | --- | --- | --- | --- | --- | --- | --- | --- | --- | --- | --- | --- | --- | --- | --- | --- | --- | --- | --- | --- |
| Cc1cn([C@H]2C[C@H](N=[N+]=[N-])[C@@H](CO)O2)c(=O)[nH]c1=O [AZT, azidothymidine, reference compound] | 2.195 cpm/cm^3 | 2.127 cpm/cm^3 | 38.797 cpm/cm^3 | 2.386 cpm/cm^3 | 2.224 cpm/cm^3 | 1.921 cpm/cm^3 | 2.220 cpm/cm^3 | 2.181 cpm/cm^3 | 1.838 cpm/cm^3 | 7.392 cpm/cm^3 | 125.627 cpm/cm^3 | 62.817 cpm/cm^3 | 6.148 cpm/cm^3 | 75.051 cpm/cm^3 | 84.047 cpm/cm^3 | 3.989 cpm/cm^3 | 15.115 cpm/cm^3 | 75.539 cpm/cm^3 | 3.231 cpm/cm^3 | 9.083 cpm/cm^3 | RT activity ([1]; Table 2, 2.5 μg/cm^3, 18 day): 116.001 cpm/cm^3; RT activity ([1]; Table 2, 5.0 μg/cm^3, 7 day): 1.724 cpm/cm^3; RT activity ([1]; Table 2, 5.0 μg/cm^3, 10 day): 3.571 cpm/cm^3; RT activity ([1]; Table 2, 5.0 μg/cm^3, 18 day): 51.735 cpm/cm^3 |
| Cc1cc(-c2cc(C)c3c(O)cc(O)cc3[o+]2)cc(C)c1O [BIOGAL 6, 5,7,4'-trihydroxy-4,3',5'-trimethyl-flavilium chloride] | 1.795 cpm/cm^3 | 1.228 cpm/cm^3 | 1.198 cpm/cm^3 | 1.748 cpm/cm^3 | 1.626 cpm/cm^3 | 1.300 cpm/cm^3 | 1.666 cpm/cm^3 | 1.300 cpm/cm^3 | 1.359 cpm/cm^3 | 111.035 cpm/cm^3 | 99.813 cpm/cm^3 | 45.535 cpm/cm^3 | 108.846 cpm/cm^3 | 98.150 cpm/cm^3 | 43.804 cpm/cm^3 | 96.638 cpm/cm^3 | 75.917 cpm/cm^3 | 38.595 cpm/cm^3 | 6.231 cpm/cm^3 | 8.938 cpm/cm^3 | effect on HIV (in words) ([1]; 1.0 μg/cm^3 and below): completely ineffective; effect on HIV replication (in words) ([1]; 5 μg/cm^3): completely blocked the HIV replication; duration of effect compared to AZT (in words), FIG. 1 ([1]; 5 μg/cm^3, FIG. 1): long lasting when compared to AZT; effect on HIV production (in words), FIG. 1 ([1]; 5 μg/cm^3, FIG. 1): completely blocked HIV production; duration of effect on HIV (in words) ([1]; 2.5 and 5 μg/cm^3): long-lasting; RT activity ([1]; Table 2, 2.5 μg/cm^3, 18 day): 6.803 cpm/cm^3; RT activity ([1]; Table 2, 5.0 μg/cm^3, 7 day): 1.478 cpm/cm^3; RT activity ([1]; Table 2, 5.0 μg/cm^3, 10 day): 1.019 cpm/cm^3; RT activity ([1]; Table 2, 5.0 μg/cm^3, 18 day): 1.226 cpm/cm^3; acute toxicity [2]: nontoxic; acute toxicity [3]: nontoxic |
